In brackets after ≈: the same amount, converted by molar mass. Several values for one entry are separate records, joined by “and”; a condition that tells them apart may be missing. Identical values can stand only once. Like-named read-outs stand apart in the source and are kept apart here. Each block holds one compound with its values, some of them ahead of it.
Assays:
[1] = biological target: T1, p300 (CH1) / HIF-1α (C-TAD) interaction (Homo sapiens, UniProt Q09472+Q16665); test: p300 CH1 / HIF-1α C-TAD binding assay (DELFIA, europium anti-GST); settings: for IC50: dose-response format of the screening assay
T1 construct: GST-p300-CH1 (aa 323-423); synthetic biotinylated HIF-1αC-TAD (aa 786-826; Peptide Protein Research Ltd., Fareham, UK)
T1 sequence (Q09472 323-423): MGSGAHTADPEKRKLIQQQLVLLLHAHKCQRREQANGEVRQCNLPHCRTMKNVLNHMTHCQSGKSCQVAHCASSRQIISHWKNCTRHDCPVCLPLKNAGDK
T1 sequence (Q16665 786-826): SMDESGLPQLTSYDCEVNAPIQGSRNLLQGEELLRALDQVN
Protocol: Binding of soluble CH1 to the immobilized C-TAD was measured by the fluorescence of a europium-tagged anti-GST antibody.
Bound GST-CH1 was detected using a europium-labeled antibody to GST (PerkinElmer Life Sciences). […] Plates were washed four times with TBST (50 mM Tris, 150 mM NaCl, 0.05% Tween 20, pH 8.0) buffer. […] After 2 h, plates were washed four times in TBST. DELFIA enhancement solution (PerkinElmer Life Sciences) was added and plates were placed on a rocker for 30 min, before reading with a Victor3 plate reader (PerkinElmer Life Sciences) or a Pherastar Plate Reader (BMG Labtech), using the europium setting under time-resolved fluorescence. Values were corrected for background and expressed as a percentage of controls (DMSO) to provide the percentage of CH1 binding.

[2] = test system: P. falciparum W2 (chloroquine resistant); test: Antimalarial activity, plasmodial LDH assay, W2 strain; type: cell-based; settings: for IC50: Plasmodium falciparum, read-out: IC50 against W2
Protocol: (§1) The antimalarial activity was determined against chloroquine sensitive (D6) and chloroquine resistant (W2) strains of P. falciparum by measuring plasmodial LDH (lactate dehydrogenase) activity according to the procedure of Makler and Hinrichs (Am. J. Trop. Med. Hyg. 1993, 48:205). A suspension of red blood cells infected with D6 or W2 strain of P. falciparum (200 μL, with 2% parasitemia and 2% hematocrit in RPMI 1640 medium supplemented with 10% human serum and 60 μg/mL Amikacin) was added to the wells of a 96-well plate containing 10 μL of serially diluted samples (plant extracts, column fractions or pure compounds). The plate was incubated at 37° C., for 72 h in a modular incubation chamber with 90% N2, 5% O2, and 5% CO2. Parasitic LDH activity was determined by mixing 20 μL of the incubation mixture with 100 μL of the Malstat reagent and incubating at room temperature for 30 min Twenty microliters of a 1:1 mixture of NBT/PES (nitro blue tetrazolium/phenazine ethosulfate) (Sigma, St. Louis, Mo.) was then added and the plate was further incubated in the dark for 1 h. The reaction was stopped by adding 100 μL of a 5% acetic acid solution and the absorbance was read at 650 nm. Artemisinin and chloroquine were included as the drug controls. IC50 values were computed from the dose response curves of growth inhibition.

[3] = test system: P. falciparum D6 (chloroquine sensitive); test: Antimalarial activity, plasmodial LDH assay, D6 strain; type: cell-based; settings: for IC50: Plasmodium falciparum, read-out: IC50 against D6
Protocol: as §1

[4] = test system: HIF-1α activation in HCT116 cells; test: HRE luciferase reporter of HIF-1α activation in HCT116 cells under anoxic conditions; type: cell-based; settings: FIG. 7
Protocol: Activation was monitored via a hypoxia response element (HRE) luciferase signal. When HIF-1α is activated, it results in an increased HRE luciferase signal. […] Data were analyzed using an ordinary one-way ANOVA with Dunnett's multiple comparisons test (reference group: DMSO.H). * P≤0.05, ** P≤0.01, *** P≤0.0001.

[5] = test system: 456 protein kinase enzymes; test: commercial panel of 456 protein kinase enzymes (DiscoverRx); type: binding
Description: (§2) In an effort to evaluate a broader range of potential activities of interest, compound 1 was screened against a commercial panel of 456 protein kinase enzymes and 32 bromodomain proteins (DiscoverRx, San Diego, Calif.), and it had no activity against any of these targets.

[6] = test system: 32 bromodomain proteins; test: commercial panel of 32 bromodomain proteins (DiscoverRx); type: binding
Description: as §2

[7] = test system: HCT116 cells; test: CCK-8 cytotoxicity in HCT116 cells under hypoxic conditions; type: cell-based; settings: 18 h treatment, hypoxic conditions (0.5% O2), FIG. 8
Description: Results are presented as the average cell viability number (% hypoxic control) of triplicate experiments ±S.E.M. (n=3-4).

[8] = pKa determination by UV-Vis analysis at varied pH; type: physicochemical; settings: aqueous buffers at varied pH, 0.1% DMSO, read-out: pKa of the titratable proton
Protocol: The cuvettes were allowed to equilibrate for 1 h before a UV-Vis curve was obtained. The pKa for 1 was determined by fitting Δ abs at 394 and 440 nm to a polynomial curve, as described previously (Yapici et al., J. Am. Chem. Soc. 2015, 137:1073-1080).

[9] = test system: NCI-60 cell line; test: NCI-60 cell line anticancer screen; type: cell-based; settings: standard initial concentration of 40 μM
[10] = Stability in NMR solvent; type: physicochemical
[11] = read-out: IC50, blocking binding of soluble CH1 to immobilized C-TAD

SMILES: CCN(CC)CCCC(C)Nc1ccnc2cc(Cl)ccc12 (stereo not drawn) [chloroquine, reference compound]
IC50 ([2]; W2, 72 h): 0.161 µg/mL (≈ 0.503 µM)
IC50 ([3]; D6, 72 h): 0.0154 µg/mL (≈ 0.0481 µM)

SMILES: OC1(c2ccccc2)N=C2N=CC=C3c4ccccc4N=C1N32 (stereo not drawn) [EA-1]
inhibition of CH1 (p300)/C-TAD (HIF-1α) interaction ([1]; even at high dose): no inhibition

SMILES: O=C(O)c1ccc(C2(O)N=C3N=CC=C4c5ccccc5N=C2N43)cc1 (stereo not drawn) [EA-2]
IC50 ([1]; read-out: IC50, CH1 (p300)/C-TAD (HIF-1α) interaction (converted)): ~290 µM

More lines, main results first:

inhibition of CH1 (p300)/C-TAD (HIF-1α) interaction ([1]; at a high dose of 250 μM): no inhibition
SMILES: O=c1nc2nccc3c4ccccc4nc1N23 [Eudistidine B, eudistidine B]

IC50 ([2]; W2, growth inhibition, 72 h): 0.0041 µg/mL (≈ 0.0145 µM)
IC50 ([3]; D6, growth inhibition, 72 h): 0.0072 µg/mL (≈ 0.0255 µM)
SMILES: C[C@@H]1CC[C@H]2[C@@H](C)C(=O)O[C@@H]3O[C@@]4(C)CC[C@@H]1[C@]32OO4 [artemisinin, reference compound]

inhibition of HIF-1α binding to p300, comparison of salt forms and natural/synthetic material ([1]; FIGS. 5A-5E, 6A-6C, listed as natural eudistidine A, free base): similarly inhibit
IC50 [1, 11]: ~75 µM and 75 µM
activity against 456 protein kinase enzymes [5]: no activity
IC50 ([2]; W2, growth inhibition, 72 h): 0.58 µg/mL (≈ 1.76 µM)
IC50 ([3]; D6, growth inhibition, 72 h): 0.77 µg/mL (≈ 2.33 µM)
pKa [8]: 5.1 ± 0.1
SMILES: COc1ccc(C2(O)N=C3N=CC=C4c5ccccc5N=C2N43)cc1 (stereo not drawn) [Eudistidine A, eudistidine A]
blocking of HIF-1α activation (HRE luciferase signal) [4]: block HIF-1α activation
% growth of W2 strain of P. falciparum ([2]; 528.89 ng/mL): 55%
% growth of W2 strain of P. falciparum ([2]; 1586.67 ng/mL): 1%
% growth of W2 strain of P. falciparum ([2]; 4760 ng/mL): 1%
% growth of D6 strain of P. falciparum ([3]; 528.89 ng/mL): 72%
% growth of D6 strain of P. falciparum ([3]; 1586.67 ng/mL): 6%
% growth of D6 strain of P. falciparum ([3]; 4760 ng/mL): 2%
activity against 32 bromodomain proteins [6]: no activity
CCK-8 cytotoxicity/growth inhibitory activity [7]: only modest cytotoxicity/growth inhibitory activity
cytotoxic activity in NCI-60 screen [9]: no significant cytotoxic activity

IC50 [1, 11]: ~75 µM
IC50 ([2]; W2, growth inhibition, 72 h): 0.9 µg/mL (≈ 1.85 µM)
IC50 ([3]; D6, growth inhibition, 72 h): 1.7 µg/mL (≈ 3.49 µM)
stability in DMSO-d6 [10]: somewhat unstable
SMILES: COc1ccc(C2(c3nc(N)[nH]c3-c3ccc(O)cc3)N=C3N=CC=C4c5ccccc5N=C2N43)cc1 (stereo not drawn) [Eudistidine C, eudistidine C]
% growth of W2 strain of P. falciparum ([2]; 528.89 ng/mL): 75%
% growth of W2 strain of P. falciparum ([2]; 1586.67 ng/mL): 22%
% growth of W2 strain of P. falciparum ([2]; 4760 ng/mL): 6%
% growth of D6 strain of P. falciparum ([3]; 528.89 ng/mL): 91%
% growth of D6 strain of P. falciparum ([3]; 1586.67 ng/mL): 56%
% growth of D6 strain of P. falciparum ([3]; 4760 ng/mL): 9%
